Test results as given in PubChem BioAssay AID248 (DTP/NCI, 2004).
Inconclusive results and toxic doses are left out. Cut-off read from the data, not from the text of the source: active = T/C of 150% or more; inactive = T/C below 125%.

System: L1210 leukemia ip in BDF1 mice, survival T/C
Experiment: NCI In Vivo Anticancer Drug Screen. Data for tumor model L1210 Leukemia (intraperitoneal) in B6D2F1 (BDF1) mice
Conditions: higher = longer survival
Outline: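 Tumor was transplanted into mice, which were then dosed with test compound or vehicle alone. Survival was recorded for each group, and the treated figure was expressed relative to the control figure.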

[1] = endpoint: mean survival time, dose: 100.0 mg/kg/injection, schedule: Q01DX009 (ip), vehicle: Klucel (hydroxypropylcellulose) (HPC)
[2] = endpoint: mean survival time, dose: 100.0 mg/kg/injection, schedule: Q04DX003 (ip), vehicle: Klucel (hydroxypropylcellulose) (HPC)
[3] = endpoint: mean survival time, dose: 200.0 mg/kg/injection, schedule: Q01DX009 (ip), vehicle: Klucel (hydroxypropylcellulose) (HPC)
[4] = endpoint: mean survival time, dose: 200.0 mg/kg/injection, schedule: Q04DX003 (ip), vehicle: Klucel (hydroxypropylcellulose) (HPC)
[5] = endpoint: mean survival time, dose: 400.0 mg/kg/injection, schedule: Q01DX009 (ip), vehicle: Klucel (hydroxypropylcellulose) (HPC)
[6] = endpoint: mean survival time, dose: 400.0 mg/kg/injection, schedule: Q04DX003 (ip), vehicle: Klucel (hydroxypropylcellulose) (HPC)
[7] = endpoint: mean survival time, dose: 100.0 mg/kg/injection, schedule: Q04DX003 (ip), vehicle: saline with Tween-80
[8] = endpoint: mean survival time, dose: 200.0 mg/kg/injection, schedule: Q04DX003 (ip), vehicle: saline with Tween-80
[9] = endpoint: mean survival time, dose: 400.0 mg/kg/injection, schedule: Q04DX003 (ip), vehicle: saline with Tween-80
[10] = endpoint: mean survival time, dose: 100.0 mg/kg/injection, schedule: Q01DX009 (ip), vehicle: saline with Tween-80
[11] = endpoint: mean survival time, dose: 200.0 mg/kg/injection, schedule: Q01DX009 (ip), vehicle: saline with Tween-80
[12] = endpoint: mean survival time, dose: 400.0 mg/kg/injection, schedule: Q01DX009 (ip), vehicle: saline with Tween-80
[13] = endpoint: mean survival time, dose: 100.0 mg/kg/injection, schedule: Q01DX001 (ip), vehicle: saline
[14] = endpoint: mean survival time, dose: 200.0 mg/kg/injection, schedule: Q01DX001 (ip), vehicle: saline
[15] = endpoint: mean survival time, dose: 400.0 mg/kg/injection, schedule: Q01DX001 (ip), vehicle: saline
[16] = endpoint: mean survival time, dose: 50.0 mg/kg/injection, schedule: Q01DX001 (ip), vehicle: saline

Measured: T/C

Cc1ccc(C)c(NC(=O)c2ccccc2Cl)c1
inactive: [1] 115 % of control | [2] 102 % of control | [3] 120 % of control | [4] 100 % of control | [5] 120 % of control | [6] 97 % of control

Nc1nc(N)c(N=O)c(Nc2ccc(O)cc2)n1
inactive: [2] 103 % of control | endpoint: mean survival time, dose: 200.0 mg/kg/injection, schedule: Q01DX Z (ip), vehicle: methylcellulose (MC) 91 % of control | [4] 97 % of control | [6] 100 % of control

CN=C(NC)c1ccc(NC(=O)c2ccc(C(=O)Nc3ccc(C(=NC)NC)c(OC)c3)c(Cl)c2)cc1OC
inactive: endpoint: mean survival time, dose: 1.26 mg/kg/injection, schedule: Q01DX Z (ip), vehicle: saline 98 % of control

O=C(CF)N(O)c1ccc(/C=C/c2ccccc2)cc1
inactive: endpoint: mean survival time, dose: 100.0 mg/kg/injection, schedule: Q01DX001 (ip), vehicle: carboxymethylcellulose (CMC) 101 % of control | endpoint: mean survival time, dose: 200.0 mg/kg/injection, schedule: Q01DX001 (ip), vehicle: carboxymethylcellulose (CMC) 113 % of control

CCOC(=O)C(=O)c1ccc[nH]1
inactive: endpoint: mean survival time, dose: 100.0 mg/kg/injection, schedule: Q01DX001 (ip), vehicle: saline with Tween-80 114 % of control | [7] 94 % of control | endpoint: mean survival time, dose: 200.0 mg/kg/injection, schedule: Q01DX001 (ip), vehicle: saline with Tween-80 115 % of control | [8] 101 % of control | endpoint: mean survival time, dose: 400.0 mg/kg/injection, schedule: Q01DX001 (ip), vehicle: saline with Tween-80 111 % of control | [9] 92 % of control

NC(=O)C(CC(=O)OCc1ccccc1)NC(=O)OCc1ccccc1 (stereo unspecified)
inactive: [10] 92 % of control | [11] 90 % of control | [12] 97 % of control

CCn1nnc2c(N(C)C)nc(N)nc21
inactive: endpoint: mean survival time, dose: 50.0 mg/kg/injection, schedule: Q01DX009 (ip), vehicle: Klucel (hydroxypropylcellulose) (HPC) 93 % of control | [1] 95 % of control | [2] 93 % of control | [4] 92 % of control

CCC(=C\c1sc2ccc3ccccc3c2[n+]1CC)/C=C1/Sc2ccc3ccccc3c2N1CC
inactive: endpoint: mean survival time, dose: 2.0 mg/kg/injection, schedule: Q01DX001 (ip), vehicle: other 117 % of control | endpoint: mean survival time, dose: 4.0 mg/kg/injection, schedule: Q01DX001 (ip), vehicle: other 95 % of control | endpoint: mean survival time, dose: 8.0 mg/kg/injection, schedule: Q01DX001 (ip), vehicle: other 88 % of control

O=C(CC(O)(C(F)(F)F)C(F)(F)F)c1cc(CC(=O)C(O)(C(F)(F)F)C(F)(F)F)cc(CC(=O)C(O)(C(F)(F)F)C(F)(F)F)c1
inactive: [2] 100 % of control | [4] 92 % of control | [6] 97 % of control

CCOC(=O)c1ccc2cc(C(=O)c3ccccc3)ccc2n1
inactive: endpoint: mean survival time, dose: 50.0 mg/kg/injection, schedule: Q01DX009 (ip), vehicle: saline 94 % of control | endpoint: mean survival time, dose: 100.0 mg/kg/injection, schedule: Q01DX009 (ip), vehicle: saline 100 % of control | endpoint: mean survival time, dose: 100.0 mg/kg/injection, schedule: Q04DX003 (ip), vehicle: saline 91 % of control | endpoint: mean survival time, dose: 200.0 mg/kg/injection, schedule: Q04DX003 (ip), vehicle: saline 91 % of control | endpoint: mean survival time, dose: 400.0 mg/kg/injection, schedule: Q04DX003 (ip), vehicle: saline 93 % of control

Cc1ccnc(NC(=O)Nc2cc(C)ccc2C)c1
inactive: [1] 94 % of control | [3] 91 % of control | [5] 92 % of control

O=C1OC(c2ccc([N+](=O)[O-])cc2)=N/C1=C\c1cccc2ccccc12
inactive: endpoint: mean survival time, dose: 100.0 mg/kg/injection, schedule: Q01DX009 (ip), vehicle: other 96 % of control | endpoint: mean survival time, dose: 200.0 mg/kg/injection, schedule: Q01DX009 (ip), vehicle: other 88 % of control | endpoint: mean survival time, dose: 400.0 mg/kg/injection, schedule: Q01DX009 (ip), vehicle: other 93 % of control

COc1ccc(Nc2cc(C)nc(N)n2)cc1
inactive: endpoint: mean survival time, dose: 25.0 mg/kg/injection, schedule: Q01DX Z (ip), vehicle: methylcellulose (MC) 97 % of control | endpoint: mean survival time, dose: 50.0 mg/kg/injection, schedule: Q01DX Z (ip), vehicle: methylcellulose (MC) 105 % of control

O=C(O)C(O)(c1ccccc1)C(O)c1ccccc1 (stereo unspecified)
inactive: [10] 113 % of control | [7] 100 % of control | [11] 97 % of control | [8] 100 % of control | [12] 98 % of control | [9] 95 % of control

CC(=O)Oc1c(C)cccc1C(=O)O
inactive: [2] 92 % of control | [4] 103 % of control | [6] 88 % of control

C#CCCN1CCC2(CC1)C(=O)NCN2c1ccccc1
inactive: endpoint: mean survival time, dose: 100.0 mg/kg/injection, schedule: Q01DX001 (ip), vehicle: Klucel (hydroxypropylcellulose) (HPC) 91 % of control | endpoint: mean survival time, dose: 200.0 mg/kg/injection, schedule: Q01DX001 (ip), vehicle: Klucel (hydroxypropylcellulose) (HPC) 94 % of control | endpoint: mean survival time, dose: 400.0 mg/kg/injection, schedule: Q01DX001 (ip), vehicle: Klucel (hydroxypropylcellulose) (HPC) 91 % of control

Cc1ccnc(N)c1
inactive: endpoint: mean survival time, dose: 12.5 mg/kg/injection, schedule: Q04DX002 (ip), vehicle: saline 114 % of control | endpoint: mean survival time, dose: 25.0 mg/kg/injection, schedule: Q04DX002 (ip), vehicle: saline 102 % of control | endpoint: mean survival time, dose: 50.0 mg/kg/injection, schedule: Q04DX002 (ip), vehicle: saline 96 % of control

O=CC1CC2CCC1C2 (stereo unspecified)
inactive: [13] 116 % of control | [14] 91 % of control | [15] 96 % of control

COc1cc([C@@H]2c3cc4c(c(O)c3C[C@H]3COC(=O)[C@@H]32)OCO4)cc(OC)c1O
inactive: endpoint: mean survival time, dose: 0.06 mg/kg/injection, schedule: Q01DX Z (ip), vehicle: saline 100 % of control | endpoint: mean survival time, dose: 0.12 mg/kg/injection, schedule: Q01DX Z (ip), vehicle: saline 100 % of control | endpoint: mean survival time, dose: 0.2 mg/kg/injection, schedule: Q01DX001 (ip), vehicle: carboxymethylcellulose (CMC) 119 % of control | endpoint: mean survival time, dose: 0.25 mg/kg/injection, schedule: Q01DX Z (ip), vehicle: saline 100 % of control | endpoint: mean survival time, dose: 0.5 mg/kg/injection, schedule: Q01DX001 (ip), vehicle: carboxymethylcellulose (CMC) 107 % of control | endpoint: mean survival time, dose: 0.5 mg/kg/injection, schedule: Q01DX Z (ip), vehicle: saline 100 % of control | endpoint: mean survival time, dose: 1.0 mg/kg/injection, schedule: Q01DX001 (ip), vehicle: carboxymethylcellulose (CMC) 107 % of control | endpoint: mean survival time, dose: 2.0 mg/kg/injection, schedule: Q01DX001 (ip), vehicle: carboxymethylcellulose (CMC) 111 % of control | endpoint: mean survival time, dose: 3.6 mg/kg/injection, schedule: Q01DX001 (ip), vehicle: carboxymethylcellulose (CMC) 103 % of control | endpoint: mean survival time, dose: 4.0 mg/kg/injection, schedule: Q01DX001 (ip), vehicle: carboxymethylcellulose (CMC) 119 % of control | endpoint: mean survival time, dose: 5.3 mg/kg/injection, schedule: Q01DX001 (ip), vehicle: carboxymethylcellulose (CMC) 108 % of control | endpoint: mean survival time, dose: 8.0 mg/kg/injection, schedule: Q01DX001 (ip), vehicle: carboxymethylcellulose (CMC) 113 % of control | endpoint: median survival time, dose: 0.06 mg/kg/injection, schedule: Q01DX009 (ip), vehicle: Klucel (hydroxypropylcellulose) (HPC) 100 % of control | endpoint: median survival time, dose: 0.12 mg/kg/injection, schedule: Q01DX009 (ip), vehicle: Klucel (hydroxypropylcellulose) (HPC) 100 % of control | endpoint: median survival time, dose: 0.25 mg/kg/injection, schedule: Q01DX009 (ip), vehicle: Klucel (hydroxypropylcellulose) (HPC) 100 % of control | endpoint: median survival time, dose: 0.5 mg/kg/injection, schedule: Q01DX009 (ip), vehicle: Klucel (hydroxypropylcellulose) (HPC) 111 % of control

Cc1[nH]c(N)nc(=S)c1CCCNc1ccc(C(=O)NC(CCC(=O)O)C(=O)O)cc1 (stereo unspecified)
inactive: [16] 104 % of control | [13] 98 % of control | [1] 93 % of control | [2] 93 % of control | [14] 101 % of control | [3] 104 % of control | [4] 93 % of control | [15] 98 % of control | [5] 98 % of control | [6] 88 % of control

O=C(c1ccc2ccccc2c1)c1cccc(F)c1C(=O)O (tested in a mixture with another compound)
inactive: endpoint: mean survival time, dose: 75.0 mg/kg/injection, schedule: Q01DX001 (ip), vehicle: carboxymethylcellulose (CMC) 95 % of control | endpoint: mean survival time, dose: 150.0 mg/kg/injection, schedule: Q01DX001 (ip), vehicle: carboxymethylcellulose (CMC) 90 % of control

COc1ccc(/C=N/O)cc1
inactive: [16] 100 % of control | [13] 93 % of control | [14] 100 % of control | [15] 96 % of control

CCOC/C=C\c1ccccc1
inactive: endpoint: mean survival time, dose: 50.0 mg/kg/injection, schedule: Q01DX009 (ip), vehicle: saline with Tween-80 95 % of control | [10] 92 % of control | [11] 92 % of control

Clc1ccc(Cl)c(SSc2cc(Cl)ccc2Cl)c1
inactive: [13] 101 % of control | [14] 98 % of control | [15] 89 % of control
